Biological target: T1, DrTrxR (Deinococcus radiodurans, UniProt Q9RSY7)
T1 construct: gene DR_1982; residues 2-325, non-cleavable N-terminal His6 tag (MHHHHHH), pET-22b, expressed in E. coli BL21(DE3), Ni-NTA and size exclusion
Assay: NADPH consumption at […] nm, insulin reduction coupled through DrTrx1 or DrTrx2
Format: biochemical
Conditions: 0.1 mM NADPH, 0.1 uM DrTrxR, 0.1 uM DrTrx1 or 0.5 uM DrTrx2, bovine insulin, 50 mM Tris-HCl pH 7.4, room temperature

T1 sequence (Q9RSY7 entry or part of it): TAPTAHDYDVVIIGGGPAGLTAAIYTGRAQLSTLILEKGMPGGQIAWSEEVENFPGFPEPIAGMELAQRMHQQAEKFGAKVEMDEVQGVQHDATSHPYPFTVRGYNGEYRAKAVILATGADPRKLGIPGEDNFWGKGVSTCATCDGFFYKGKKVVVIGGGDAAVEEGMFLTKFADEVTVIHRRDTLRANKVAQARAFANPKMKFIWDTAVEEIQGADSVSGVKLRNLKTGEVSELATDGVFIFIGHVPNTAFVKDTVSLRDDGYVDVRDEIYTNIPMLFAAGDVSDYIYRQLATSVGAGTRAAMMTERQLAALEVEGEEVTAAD

SMILES: NC(=O)C1=CN([C@@H]2O[C@H](COP(=O)(O)OP(=O)(O)OC[C@H]3O[C@@H](n4cnc5c(N)ncnc54)[C@H](OP(=O)(O)O)[C@@H]3O)[C@@H](O)[C@H]2O)C=CC1 [NADPH]
- NADPH consumption at 340 nm, insulin reduction coupled through DrTrx1 or DrTrx2: In the presence of DrTrxR/NADPH, both DrTrx1 and DrTrx2 caused a notable decrease

Source: paper PMC8615215, “Structural and Biochemical Characterization of Thioredoxin-2 from Deinococcus radiodurans” (Antioxidants, 2021)
